One may read the inhibition as the relative decrease from the control value, in per cent.

The target in assay [1] is T1, TREK-1 (Homo sapiens, UniProt O95069).
T1 construct: expressed in transfected cells; host or cells: Xenopus laevis oocytes injected with cRNA
T1 sequence (O95069 1-426): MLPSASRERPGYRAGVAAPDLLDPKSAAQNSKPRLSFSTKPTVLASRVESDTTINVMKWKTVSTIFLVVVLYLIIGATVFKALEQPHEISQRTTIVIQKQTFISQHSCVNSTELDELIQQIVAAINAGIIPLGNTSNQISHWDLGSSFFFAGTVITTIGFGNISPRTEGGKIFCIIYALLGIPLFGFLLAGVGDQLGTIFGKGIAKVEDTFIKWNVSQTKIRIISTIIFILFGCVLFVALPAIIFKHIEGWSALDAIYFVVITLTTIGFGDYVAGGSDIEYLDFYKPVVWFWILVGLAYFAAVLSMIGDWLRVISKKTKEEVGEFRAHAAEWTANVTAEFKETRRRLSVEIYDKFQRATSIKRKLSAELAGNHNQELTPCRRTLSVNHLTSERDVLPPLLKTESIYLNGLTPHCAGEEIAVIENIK
Description: TEVC selectivity in X. laevis oocytes, TREK-1. The format is cell-based. Conditions: mean ± SD, n = 4, read-out: Effect on TREK-1 (inhibition; negative = activating). On the procedure:
(§1) After confirming compound 6f simultaneous blockade of TASK-1, KV1.5, and NaV1.5, other cardiac channels (Kir2.1, TREK-1, TASK-4) were tested for selectivity at 100 μM (Fig. 8).
(§2) To obtain X. laevis oocytes, the frogs were anesthetized with 2 g/L of tricaine methanesulfonate, and the ovarian lobes were mechanically separated with forceps. The oocytes were incubated for 120 min in an OR2 solution containing in mM: NaCl 82.5, KCl 2, MgCl2 1, HEPES 5 (pH 7.5) supplemented with 2 mg/ml of collagenase II (Sigma) to remove residual connective tissue and obtain individual oocytes. […]
(§3) In order to overexpress the channel in the oocyte, each of the channels to be measured was subcloned (complementary DNA (cDNA); human TASK-1 (KCNK3, NM_002246), h KV1.5 (KCNA5, NM_002234), h NaV1.5 (hH1, M77235), TASK-4/TALK-2 (KCNK17, NM_AF358910), TREK-1 (KCNK2, AF004711) and Kir2.1 (KCNJ2, NM_017296) into pSGEM, pBF1 or pSP64 expression vector, and the cDNA was linearized with NheI or MluI. Complementary RNA (cRNA) was synthesized with the mMESSAGE mMACHINE-Kit (Ambion). The quality of the cRNA was tested on an agarose gel by electrophoresis. cRNA was quantified using a UV-Vis spectrophotometer (NanoDrop 2000). […] After this time, the overexpression of each channel was monitored through electrophysiology. […]

Assay [2] concerns the target T2, Kir2.1 (Rattus norvegicus, UniProt Q64273).
T2 construct: Kir2.1 (KCNJ2, NM_017296); expressed in transfected cells; host or cells: Xenopus laevis oocytes injected with cRNA
T2 sequence (Q64273 1-427): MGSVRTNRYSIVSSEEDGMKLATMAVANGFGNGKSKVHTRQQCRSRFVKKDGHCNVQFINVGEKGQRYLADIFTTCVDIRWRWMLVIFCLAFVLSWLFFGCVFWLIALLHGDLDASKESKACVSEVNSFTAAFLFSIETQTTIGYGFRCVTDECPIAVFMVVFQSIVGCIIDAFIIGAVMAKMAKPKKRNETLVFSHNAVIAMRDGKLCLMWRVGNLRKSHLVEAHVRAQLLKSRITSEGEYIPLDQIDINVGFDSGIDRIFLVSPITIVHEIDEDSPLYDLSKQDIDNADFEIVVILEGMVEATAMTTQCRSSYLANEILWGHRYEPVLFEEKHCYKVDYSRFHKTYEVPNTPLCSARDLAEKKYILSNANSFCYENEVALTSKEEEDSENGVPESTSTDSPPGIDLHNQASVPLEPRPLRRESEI
Description: TEVC selectivity in X. laevis oocytes, Kir2.1. The class given is cell-based. Conditions: mean ± SD, n = 3, read-out: Effect on Kir2.1 (inhibition). On the procedure: as §1, §2, §3

For the compound `CCCCN(CCCC)CC(=O)Nc1ccc(OC)cc1OC` [Compound 6f, 2-(dibutylamine)-N-(2,4-dimethoxiphenyl)acetamide], the inhibition at 100 µM is -8.71% in assay [1] and -1.01% in assay [2].

(Values after publication PMC12131194, “Rational design, synthesis, and evaluation of novel polypharmacological compounds targeting NaV1.5, KV1.5, and K2P channels for atrial fibrillation” (The Journal of Biological Chemistry, 2025).)
